Source: patent publication US9302999B2, “Substituted triazoles as herbicides” (E. I. DU PONT DE NEMOURS AND COMPANY, priority 2012, dated 2016)

Tests used:
Format in all cases: in vivo
[1] = tested on: Oilseed Rape; assay: Test C preemergence: oilseed rape; details: 31 g ai/ha, scale 0 (no effect) to 100 (complete control)
[2] = tested on: crabgrass, Brazil (Brazilian crabgrass, Digitaria horizontalis); assay: Test F pre-/postemergence: crabgrass, Brazil
Description: Seeds of plant species selected from corn (Zea mays), soybean (Glycine max), velvetleaf (Abutilon theophrasti), lambsquarters (Chenopodium album), poinsettia, wild (wild poinsettia, Euphorbia heterophylla), pigweed, palmer (palmer pigweed, Amaranthus palmeri), waterhemp (common waterhemp, Amaranthus rudis), surinam grass (Brachiaria decumbens), crabgrass, Brazil (Brazilian crabgrass, Digitaria horizontalis), panicum, fall (fall panicum Panicum dichotomiflorum), crabgrass, large (large crabgrass, Digitaria sanguinalis), foxtail, giant (giant foxtail, Setaria faberii), foxtail, green (green foxtail Setaria viridis), goosegrass (Eleusine indica), ragweed (common ragweed, Ambrosia elatior), barnyardgrass (Echinochloa crus-galli), sandbur (southern sandbur, Cenchrus echinatus), arrowleaf sida (Sida rhombifolia), ryegrass, Italian (Italian ryegrass, Lolium multiflorum), dayflower, VA (Virginia (VA) dayflower, Commelina virginica), field bindweed (Convolvulus arvensis), cocklebur (common cocklebur, Xanthium strumarium), morningglory (Ipomoea coccinea), nightshade (eastern black nightshade, Solanum ptycanthum), kochia (Kochia scoparia), nutsedge, yellow (yellow nutsedge, Cyperus esculentus), johnsongrass (Sorghum halepense), smartweed (ladysthumb smartweed, Polygonum persicaria), and beggarticks (hairy beggarticks, Bidens pilosa), were planted into a silt loam soil and treated preemergence with test chemicals formulated in a non-phytotoxic solvent mixture which included a surfactant. At the same time, plants selected from these crop and weed species and also pigweed (Amaranthus retroflexus), waterhemp_RES1 (ALS/Triazine resistant common waterhemp, Amaranthus rudis) and waterhemp_RES2 (ALS/HPPD resistant common waterhemp, Amaranthus rudis) were planted in pots containing a planting medium comprising spaghnum peat moss, vermiculite, wetting agent and starter nutrients treated with postemergence applications of some of the test chemicals formulated in the same manner. Plants ranged in height from 2 to 18 cm for postemergence treatments (1- to 4-leaf stage).
Treated plants and controls were maintained in a greenhouse for 14 to 21 days, after which time all species were compared to controls and visually evaluated. Plant response ratings, summarized in Table E, are based on a scale of 0 to 100 where 0 is no effect and 100 is complete control. A dash (-) response means no test result.

[3] = tested on: bluegrass (annual bluegrass, Poa annua); assay: Test D pre-/postemergence: bluegrass
In short: (§1)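 Species were sown in silt loam and sprayed preemergence, or grown in peat/vermiculite medium and sprayed postemergence at the 1- to 4-leaf stage (2–18 cm), with compounds in a surfactant-containing solvent. Injury was visually rated against untreated controls after 14–21 days, on a 0 (no effect) to 100 (complete control) scale.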

[4] = tested on: galium (catchweed bedstraw, Galium aparine); assay: Test D pre-/postemergence: galium; details: Postemergence
In short: as §1

[5] = tested on: mustard, wild (wild mustard, Sinapis arvensis); assay: Test D pre-/postemergence: mustard, wild
In short: as §1

[6] = tested on: windgrass (Apera spica-venti); assay: Test D pre-/postemergence: windgrass
In short: as §1

[7] = Preemergence, 16 g ai/ha, scale 0 to 100, 0 no effect, 100 complete control
[8] = Preemergence, 31 g ai/ha, scale 0 to 100, 0 no effect, 100 complete control
[9] = Preemergence, 62 g ai/ha, scale 0 to 100
[10] = Preemergence, 125 g ai/ha, scale 0 to 100
[11] = Preemergence, 250 g ai/ha, scale 0 to 100
[12] = Postemergence, 31 g ai/ha, scale 0 to 100
[13] = Postemergence, 125 g ai/ha, scale 0 to 100
[14] = Postemergence, 31 g ai/ha, scale 0 to 100 (0 no effect, 100 complete control)
[15] = Postemergence, 62 g ai/ha, scale 0 to 100 (0 no effect, 100 complete control)
[16] = Postemergence, 125 g ai/ha, scale 0 to 100, 0 no effect, 100 complete control
[17] = Postemergence, 16 g ai/ha, scale 0 to 100

## CCCc1nn(-c2ccc(C(F)(F)F)cc2)nc1Oc1ccnc(C(F)(F)F)c1 [Compound 170]
[1]
  Plant response rating, Oilseed Rape: 95

## CCc1nn(-c2ccc(F)c(F)c2)nc1Oc1ccnc(C(F)(F)F)c1 [Compound 171]
[2]; [7]
  Plant response rating, Crabgrass, Brazil: 0
[2]; [8]
  Plant response rating, Crabgrass, Brazil: 98
[2]; [9]
  Plant response rating, Crabgrass, Brazil: 100
[2]; [10]
  Plant response rating, Crabgrass, Brazil: 100
[2]; [11]
  Plant response rating, Crabgrass, Brazil: 100
[1]
  Plant response rating, Oilseed Rape: 0

## CCCc1nn(-c2ccc(F)c(F)c2)nc1Oc1ccnc(C(F)(F)F)c1 [Compound 172]
[2]; Postemergence, 250 g ai/ha, scale 0 to 100
  Plant response rating, Crabgrass, Brazil: 90
[2]; [12]
  Plant response rating, Crabgrass, Brazil: 50
[2]; [13]
  Plant response rating, Crabgrass, Brazil: 70
[2]; [8]
  Plant response rating, Crabgrass, Brazil: 100
[2]; [10]
  Plant response rating, Crabgrass, Brazil: 100
[2]; [11]
  Plant response rating, Crabgrass, Brazil: 100
[1]
  Plant response rating, Oilseed Rape: 60

## CCCc1nn(-c2ccc(F)cc2F)nc1Oc1ccnc(C(F)(F)F)c1 [Compound 179]
[1]
  Plant response rating, Oilseed Rape: 80

## CCc1nn(-c2ccc(C(F)(F)F)c(F)c2)nc1Oc1ccnc(C(F)(F)F)c1 [Compound 183]
[1]
  Plant response rating, Oilseed Rape: 60

## CCOc1nn(-c2ccc(Cl)cc2)nc1Cc1ccnc(C(F)(F)F)c1 [Compound 188]
[1]
  Plant response rating, Oilseed Rape: 20

## CCOc1nn(-c2ccc(F)cc2)nc1Cc1ccnc(C(F)(F)F)c1 [Compound 196, 4-[[5-ethoxy-2-(4-fluorophenyl)-2H-1,2,3-triazol-4-yl]methyl]-2-(trifluoromethyl)pyridine]
[3]; [14]
  Plant response rating: Bluegrass: 70
[3]; [15]
  Plant response rating: Bluegrass: 75
[3]; [16]
  Plant response rating: Bluegrass: 80
[3]; [17]
  Plant response rating, Bluegrass: 60
[3]; [7]
  Plant response rating, Bluegrass: 5
[3]; [8]
  Plant response rating, Bluegrass: 35
[3]; [9]
  Plant response rating, Bluegrass: 75
[3]; [10]
  Plant response rating, Bluegrass: 100
[4]; 31 g ai/ha, scale 0 to 100 (0 no effect, 100 complete control)
  Plant response rating: Galium: 85
[4]; 62 g ai/ha, scale 0 to 100 (0 no effect, 100 complete control)
  Plant response rating: Galium: 70
[4]; 125 g ai/ha, scale 0 to 100, 0 no effect, 100 complete control
  Plant response rating: Galium: 90
[4]; 16 g ai/ha, scale 0 to 100
  Plant response rating, Galium: 70
[5]; [14]
  Plant response rating: Mustard, Wild: 100
[5]; [15]
  Plant response rating: Mustard, Wild: 100
[5]; [16]
  Plant response rating: Mustard, Wild: 100
[5]; [17]
  Plant response rating, Mustard, Wild: 100
[5]; [7]
  Plant response rating, Mustard, Wild: 35
[5]; [8]
  Plant response rating, Mustard, Wild: 95
[5]; [9]
  Plant response rating, Mustard, Wild: 100
[5]; [10]
  Plant response rating, Mustard, Wild: 100
[6]; [15]
  Plant response rating: Windgrass: 95
[6]; [16]
  Plant response rating: Windgrass: 95
[6]; [17]
  Plant response rating, Windgrass: 60
[6]; [12]
  Plant response rating, Windgrass: 75
[6]; [7]
  Plant response rating, Windgrass: 20
[6]; [8]
  Plant response rating, Windgrass: 100
[6]; [9]
  Plant response rating, Windgrass: 100
[6]; [10]
  Plant response rating, Windgrass: 100
[2]; Postemergence, 8 g ai/ha, scale 0 to 100
  Plant response rating, Crabgrass, Brazil: 60
[2]; [17]
  Plant response rating, Crabgrass, Brazil: 75
[2]; [12]
  Plant response rating, Crabgrass, Brazil: 85
[2]; Postemergence, 62 g ai/ha, scale 0 to 100
  Plant response rating, Crabgrass, Brazil: 95
[2]; [13]
  Plant response rating, Crabgrass, Brazil: 95
